From patent publication US20240158446A1, “CYCLIC COMPOUND HAVING SELECTIVE INHIBITORY ACTION ON KRAS OVER HRAS AND NRAS” (CHUGAI SEIYAKU KABUSHIKI KAISHA, priority 2021, published 2024)
Where a SMILES comes first, the peptide text is derived from it. Bridges are numbered along the chain shown (N, C = ends). [ ]: non-standard residue; d: D form. The star is where a group is joined. hPhe(3-Cl-4-CF3) = N[C@@H](CCc1ccc(C(F)(F)F)c(Cl)c1)C(=O)O; NEtPhe(4-Me) = CCN[C@@H](Cc1ccc(C)cc1)C(=O)O; NMeGly(cPent) = CN[C@H](C(=O)O)C1CCCC1; Hyp = O=C(O)[C@@H]1C[C@@H](O)CN1; NMeD = CN[C@@H](CC(=O)O)C(=O)O; NMeL = CN[C@@H](CC(C)C)C(=O)O; Morpholide = C1CN(*)CCO1; Ac5c = NC1(C(=O)O)CCCC1; X51 = C1CCC(*)OC1; Sar = CNCC(=O)O

How the values were obtained:
[1] = target: GDP-bound NRAS wild-type protein (Homo sapiens, UniProt P01111); assay: Binding to NRAS by surface plasmon resonance (SPR), Single Cycle Kinetics; settings: for NRAS/KRAS (ratio of KD value for NRAS to KD value for KRAS): SPR, GDP-bound NRAS wild-type protein vs GDP-bound KRAS wild-type protein; for NRAS/KRAS (ratio of KD value with respect to GDP-bound NRAS wild-type protein to KD value with respect to KRAS): SPR KD ratio NRAS/KRAS, class symbols
[2] = target: GDP-bound HRAS wild-type protein (Homo sapiens, UniProt P01112); assay: Binding to HRAS by surface plasmon resonance (SPR), Single Cycle Kinetics; settings: for HRAS/KRAS (ratio of KD value for HRAS to KD value for KRAS): SPR, GDP-bound HRAS wild-type protein vs GDP-bound KRAS wild-type protein; for HRAS/KRAS (ratio of KD value with respect to GDP-bound HRAS wild-type protein to KD value with respect to KRAS): SPR KD ratio HRAS/KRAS, class symbols
Chain of GDP-bound HRAS wild-type protein (P01112 whole entry): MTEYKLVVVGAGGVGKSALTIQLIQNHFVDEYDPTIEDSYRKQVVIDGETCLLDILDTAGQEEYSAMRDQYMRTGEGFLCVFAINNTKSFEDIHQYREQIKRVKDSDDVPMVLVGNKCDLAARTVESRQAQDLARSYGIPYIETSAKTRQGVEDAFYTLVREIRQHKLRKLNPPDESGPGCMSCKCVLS

Chain of GDP-bound NRAS wild-type protein (P01111 whole entry): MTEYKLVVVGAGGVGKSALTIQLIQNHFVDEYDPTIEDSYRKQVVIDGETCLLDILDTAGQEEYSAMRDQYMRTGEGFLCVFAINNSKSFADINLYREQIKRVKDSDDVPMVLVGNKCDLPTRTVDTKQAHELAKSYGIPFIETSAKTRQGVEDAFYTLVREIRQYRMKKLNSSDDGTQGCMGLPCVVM

Row | Structure (SMILES) | NRAS/KRAS (ratio of KD value with respect to GDP-bound NRAS wild-type protein to KD value with respect to KRAS) [1] | HRAS/KRAS (ratio of KD value with respect to GDP-bound HRAS wild-type protein to KD value with respect to KRAS) [2] | further results
1 | CCO[C@@H]1C[C@H]2C(=O)NC3(CCC3)C(=O)N(C)[C@@H](C3CCCC3)C(=O)N(C)[C@H](C(=O)N(C)C)CC(=O)N(C)[C@@H](CC3CC3)C(=O)N[C@@H]([C@@H](C)CC)C(=O)N(C)CC(=O)N(C)[C@H]3C/C=C\CCN(C3=O)[C@@H](Cc3ccc(F)cc3C)C(=O)N(C)CC(=O)N[C@@H](CCc3cc(F)c(C(F)(F)F)c(F)c3)C(=O)N2C1 [PP1528] | – | – | NRAS/KRAS (ratio of KD value for NRAS to KD value for KRAS) ([1]; KD ratio class): A (a compound having 10 or more and less than 20 is denoted as A); HRAS/KRAS (ratio of KD value for HRAS to KD value for KRAS) ([2]; KD ratio class): B (a compound having 3 or more and less than 10 is denoted as B)
2 | CCO[C@@H]1C[C@H]2C(=O)NC3(CC(C)(C)C3)C(=O)N(C)[C@@H](C3CCCC3)C(=O)N(C)[C@H](C(=O)N(C)C)CC(=O)N(C)[C@@H](CC(C)C)C(=O)N[C@@H]([C@@H](C)CC)C(=O)N(C)CC(=O)N(C)[C@H]3C/C=C\CCN(C3=O)[C@@H](Cc3ccc(OC)cc3)C(=O)N(C)CC(=O)N[C@@H](CCc3ccc(C(F)(F)F)c(OC)c3)C(=O)N2C1 [PP2693] | A (a compound having 10 or more and less than 20 is denoted as A) | B (a compound having 3 or more and less than 10 is denoted as B) | –
3 | CCCN1C(=O)CN(C)C(=O)CN(C)C(=O)[C@H]([C@@H](C)CC)NC(=O)[C@@H]2CCCCCCC[C@@](C)(NC(=O)[C@@H]3C[C@@H](OCC)CN3C(=O)[C@H](CCc3cc(F)c(C(F)(F)F)c(F)c3)NC(=O)CN(C)C(=O)[C@@H]1Cc1ccc(C(F)(F)F)cc1)C(=O)N(C)[C@@H](C1CCCC1)C(=O)N(C)[C@H](C(=O)N1CCOCC1)CC(=O)N2C (stereo in doubt) [PP0898] | – | – | NRAS/KRAS (ratio of KD value for NRAS to KD value for KRAS) [1]: B (a compound having 3 or more and less than 10 is denoted as B); HRAS/KRAS (ratio of KD value for HRAS to KD value for KRAS) [2]: B (a compound having 3 or more and less than 10 is denoted as B)
4 | CCOC[C@H]1C(=O)N[C@@H]([C@@H](C)CC)C(=O)N(C)CC(=O)N(C)[C@H]2C/C=C\CCN(C2=O)[C@@H](Cc2ccc(C)cc2F)C(=O)N(C)CC(=O)N[C@@H](CCc2ccc(C(F)(F)F)c(OC)c2)C(=O)N2C[C@@H](C)C[C@H]2C(=O)NC2(CC(C)(C)C2)C(=O)N(C)[C@@H](C2CCCC2)C(=O)N(C)[C@H](C(=O)N(C)CC)CC(=O)N1C [PP2697] | A (a compound having 10 or more and less than 20 is denoted as A) | A (a compound having 10 or more and less than 20 is denoted as A) | –
5 | CCC[C@H]1C(=O)N[C@@H]([C@@H](C)CC)C(=O)N(C)CC(=O)N(C)[C@H]2C/C=C\CCN(C2=O)[C@@H](Cc2ccc(C(F)(F)F)cc2)C(=O)N(C)CC(=O)N[C@@H](CCc2cc(F)c(C(F)F)c(OC)c2)C(=O)N2C[C@H](OCC)C[C@H]2C(=O)NC2(CC(C)(C)C2)C(=O)N(C)[C@@H](C2CCCC2)C(=O)N(C)[C@H](C(=O)N(C)C)CC(=O)N1C [PP2867] | A (a compound having 10 or more and less than 20 is denoted as A) | A (a compound having 10 or more and less than 20 is denoted as A) | –
6 | CCC[C@H]1C(=O)N[C@@H]([C@@H](C)CC)C(=O)N(C)CC(=O)N(C)[C@H]2C/C=C\CCN(C2=O)[C@@H](Cc2ccc(C(F)(F)F)cc2)C(=O)N(C)CC(=O)N[C@@H](CCc2cc(F)c(CC)c(OC)c2)C(=O)N2C[C@H](OCC)C[C@H]2C(=O)NC2(CC(C)(C)C2)C(=O)N(C)[C@@H](C2CCCC2)C(=O)N(C)[C@H](C(=O)N(C)C)CC(=O)N1C [PP2862] | A (a compound having 10 or more and less than 20 is denoted as A) | B (a compound having 3 or more and less than 10 is denoted as B) | –
7 | CCC[C@@H]1C[C@H]2C(=O)NC3(CC(C)(C)C3)C(=O)N(C)[C@@H](C3CCCC3)C(=O)N(C)[C@H](C(=O)N(C)C)CC(=O)N(C)[C@@H](CCC)C(=O)N[C@@H]([C@@H](C)CC)C(=O)N(C)CC(=O)N(C)[C@H]3C/C=C\CCN(C3=O)[C@@H](Cc3ccc(C)cc3)C(=O)N(C)CC(=O)N[C@@H](CCc3ccc(C(F)(F)F)c(Cl)c3)C(=O)N2C1 [PP2214] | – | – | NRAS/KRAS (ratio of KD value for NRAS to KD value for KRAS) [1]: A (a compound having 10 or more and less than 20 is denoted as A); HRAS/KRAS (ratio of KD value for HRAS to KD value for KRAS) [2]: A (a compound having 10 or more and less than 20 is denoted as A)
8 | CC[C@H](C)[C@@H]1NC(=O)[C@H](CC(C)C)N(C)C(=O)C[C@@H](C(=O)N2CCOCC2)N(C)C(=O)[C@H](C2CCCC2)N(C)C(=O)C2(CCC2)NC(=O)[C@]2(C)CCCN2C(=O)[C@H](CCc2cc(F)c(C(F)(F)F)c(F)c2)NC(=O)CN(C)C(=O)[C@H](Cc2ccc(C(F)(F)F)cc2)N2CCCCC[C@@H](C2=O)N(C)C(=O)CN(C)C1=O [PP0817] | – | – | NRAS/KRAS (ratio of KD value for NRAS to KD value for KRAS) [1]: A (a compound having 10 or more and less than 20 is denoted as A); HRAS/KRAS (ratio of KD value for HRAS to KD value for KRAS) [2]: B (a compound having 3 or more and less than 10 is denoted as B)
9 | CCOC[C@H]1C(=O)N[C@@H]([C@@H](C)CC)C(=O)N(C)CC(=O)N(C)[C@H]2C/C=C\CCN(C2=O)[C@@H](Cc2ccc(OC)cc2)C(=O)N(C)CC(=O)N[C@@H](CCc2ccc(C(F)(F)F)c(OC)c2)C(=O)N2C[C@@H](C)C[C@H]2C(=O)NC2(CC(C)(C)C2)C(=O)N(C)[C@@H](C2CCCC2)C(=O)N(C)[C@H](C(=O)N(C)CC)CC(=O)N1C [PP2702] | A (a compound having 10 or more and less than 20 is denoted as A) | B (a compound having 3 or more and less than 10 is denoted as B) | –
10 | CC[C@H](C)[C@@H]1NC(=O)[C@H](CC(C)C)N(C)C(=O)C[C@@H](C(=O)N2CCOCC2)N(C)C(=O)[C@H](C2CCCC2)N(C)C(=O)C2(CCCC2)NC(=O)[C@@H]2C[C@@H](OC3CCCCO3)CN2C(=O)[C@H](CCc2ccc(C(F)(F)F)c(Cl)c2)NC(=O)CN(C)C(=O)[C@H](Cc2ccc(C)cc2)N(CC)C(=O)CN(C)C(=O)CN(C)C1=O (stereo partly drawn) [PP0068] ([NMeL]I[Sar][Sar][NEtPhe(4-Me)][Sar][hPhe(3-Cl-4-CF3)][Hyp](X51)[Ac5c][NMeGly(cPent)][NMeD]-Morpholide; lactam N-11) | – | – | NRAS/KRAS (ratio of KD value for NRAS to KD value for KRAS) [1]: C (A compound having a KD ratio of 0.1 or more and less than 3 is denoted as C); HRAS/KRAS (ratio of KD value for HRAS to KD value for KRAS) [2]: C (A compound having a KD ratio of 0.1 or more and less than 3 is denoted as C)
11 | CCC[C@H]1C(=O)N[C@@H]([C@@H](C)CC)C(=O)N(C)CC(=O)N(C)[C@H]2C/C=C\CCN(C2=O)[C@@H](Cc2ccc(C(F)(F)F)cc2)C(=O)N(C)CC(=O)N[C@@H](CCc2ccc(C3CC3)c(Cl)c2)C(=O)N2C[C@H](OCC)C[C@H]2C(=O)NC2(CC(C)(C)C2)C(=O)N(C)[C@@H](C2CCCC2)C(=O)N(C)[C@H](C(=O)N(C)C)CC(=O)N1C [PP2858] | A (a compound having 10 or more and less than 20 is denoted as A) | B (a compound having 3 or more and less than 10 is denoted as B) | –
12 | CCC[C@H]1C(=O)N[C@@H]([C@@H](C)CC)C(=O)N(C2CC2)CC(=O)N(C)[C@H]2C/C=C\CCN(C2=O)[C@@H](Cc2ccc(C)cc2)C(=O)N(C)CC(=O)N[C@@H](CCc2ccc(C3CC3)c(Cl)c2)C(=O)N2C[C@H](OCC)C[C@H]2C(=O)NC2(CC(C)(C)C2)C(=O)N(C)[C@@H](C2CCCC2)C(=O)N(C)[C@H](C(=O)N(C)C)CC(=O)N1C [PP2885] | A (a compound having 10 or more and less than 20 is denoted as A) | A (a compound having 10 or more and less than 20 is denoted as A) | –
13 | CCO[C@@H]1C[C@H]2C(=O)NC3(CCC3)C(=O)N(C)[C@@H](C3CCCC3)C(=O)N(C)[C@H](C(=O)N(C)CC)CC(=O)N(C)[C@@H](CC3CCCC3)C(=O)N[C@@H]([C@@H](C)CC)C(=O)N(C)CC(=O)N(C)[C@H]3C/C=C\CCN(C3=O)[C@@H](Cc3ccc(C(F)(F)F)cc3)C(=O)N(C)CC(=O)N[C@@H](CCc3ccc(C(F)(F)F)c(OC)c3)C(=O)N2C1 [PP1573] | – | – | NRAS/KRAS (ratio of KD value for NRAS to KD value for KRAS) ([1]; KD ratio class): A (a compound having 10 or more and less than 20 is denoted as A); HRAS/KRAS (ratio of KD value for HRAS to KD value for KRAS) ([2]; KD ratio class): A (a compound having 10 or more and less than 20 is denoted as A)
14 | CCC(CC)[C@H]1C(=O)N(C)[C@H](C(=O)N(C)C)CC(=O)N(C)[C@@H](COC)C(=O)N[C@@H]([C@@H](C)CC)C(=O)N(C)CC(=O)N(C)[C@H]2C/C=C\CCN(C2=O)[C@@H](Cc2ccc(C)cc2)C(=O)N(C)CC(=O)N[C@@H](CCc2ccc(C(F)(F)F)c(OC)c2)C(=O)N2CCOC[C@H]2C(=O)NC2(CC(C)(C)C2)C(=O)N1C [PP2938] | AA (a compound having 20 or more is denoted as AA) | A (a compound having 10 or more and less than 20 is denoted as A) | –
15 | CCO[C@@H]1C[C@H]2C(=O)NC3(CCC3)C(=O)N(C)[C@@H](C(CC)CC)C(=O)N(C)[C@H](C)CC(=O)N(C)[C@@H](CC3CC3)C(=O)N[C@@H]([C@@H](C)CC)C(=O)N(C)CC(=O)N(C)[C@H]3C/C=C\CCN(C3=O)[C@@H](Cc3ccc(F)cc3C)C(=O)N(C)CC(=O)N[C@@H](CCc3cc(F)c(C(F)(F)F)c(F)c3)C(=O)N2C1 [PP1520] | – | – | NRAS/KRAS (ratio of KD value for NRAS to KD value for KRAS) ([1]; KD ratio class): A (a compound having 10 or more and less than 20 is denoted as A); HRAS/KRAS (ratio of KD value for HRAS to KD value for KRAS) ([2]; KD ratio class): A (a compound having 10 or more and less than 20 is denoted as A)
